Conditions: in water

C=CCC
Conditions	solubility (mole fraction)
293.15 K	9.53e-05
295.15 K	8.78e-05
298.15 K	7.97e-05
300.15 K	7.44e-05
303.15 K	6.77e-05
305.15 K	6.42e-05
308.15 K	5.96e-05
310.15 K	5.56e-05
313.15 K	5.24e-05
315.15 K	4.9e-05
318.15 K	4.63e-05
320.15 K	4.42e-05
323.15 K	4.12e-05
